Laboratory results: US6136781A, “LH-RH receptor antagonists” (Takeda Chemical Industries, Ltd., priority 1995, dated 2000)
Where two headings read alike, the source gives them in different places.

Conditions: amide bond, 15-membered ring, DMF
[1] = DIEA (active ester), 0.88 mM, 4 steps
[2] = ONB active ester/DIEA, 1.06 mM, 5 steps

## Cc1ccc(S(=O)(=O)NC(=N)NCCC[C@H]2NC(=O)[C@H](C)NC(=O)[C@H](Cc3c[nH]c4ccccc34)NC(=O)[C@@H](C)NC(=O)[C@H](Cc3ccccc3)NC2=O)cc1 [cyclo(-Ala-D-Arg(Tos)-Phe-D-Ala-Trp-)]
From H-Trp-Ala-dArg(Tos)-Phe-dAla-OH, PyBOP/DIEA, 25.0 °C, 2 steps
  ring closure, yield after HPLC: 21.8%

## Cc1ccc(S(=O)(=O)NC(=N)NCCC[C@@H]2NC(=O)[C@H](Cc3ccccc3)NC(=O)[C@H](Cc3c[nH]c4ccccc34)NC(=O)[C@@H](C)NC(=O)[C@H](Cc3ccccc3)NC2=O)cc1 [cyclo(-Phe-Arg(Tos)-Phe-D-Ala-Trp-)]
From H-Trp-Phe-Arg(Tos)-Phe-dAla-OH, PyBOP/DIEA, 25.0 °C, 2 steps
  ring closure, yield after HPLC: 71.5%

## COc1cc(C)c(S(=O)(=O)NC(=N)NCCC[C@H]2NC(=O)[C@H](Cc3ccccc3)NC(=O)[C@H](Cc3c[nH]c4ccccc34)NC(=O)[C@@H](C)NC(=O)[C@H](Cc3ccccc3)NC2=O)c(C)c1C [cyclo(-Phe-D-Arg(Mtr)-Phe-D-Ala-Trp-)]
From H-dAla-Trp-Phe-dArg(Mtr)-Phe-OH, PyBOP/DIEA, 1.0 mM, 25.0 °C, 2 steps
  ring closure, yield after HPLC: 5.8%

## Cc1ccc(S(=O)(=O)NC(=N)NCCC[C@H]2NC(=O)[C@H](Cc3ccccc3)NC(=O)[C@H](Cc3c[nH]c4ccccc34)NC(=O)[C@@H](C)NC(=O)[C@H](Cc3ccc4ccccc4c3)NC2=O)cc1 [cyclo(-Phe-D-Arg(Tos)-Nal(2)-D-Ala-Trp-)]
From H-Trp-Phe-dArg(Tos)-Nal(2)-dAla-OH, PyBOP/DIEA, 25.0 °C, 2 steps
  ring closure, yield after HPLC: 15.5%

## Cc1ccc(S(=O)(=O)NC(=N)NCCC[C@H]2NC(=O)[C@H](Cc3ccccc3)NC(=O)[C@H](Cc3c[nH]c4ccccc34)NC(=O)[C@@H](C)NC(=O)[C@H](Cc3ccccc3)NC2=O)cc1 [cyclo(-Phe-D-Arg(Tos)-Phe-D-Ala-Trp-)]
From H-Trp-Phe-dArg(Tos)-Phe-dAla-OH, PyBOP/DIEA, 25.0 °C, 2 steps
  ring closure, yield after HPLC: 10.8%

## Cc1ccc(S(=O)(=O)NC(=N)NCCC[C@H]2NC(=O)[C@H](Cc3ccccc3)NC(=O)[C@H](Cc3c[nH]c4ccccc34)NC(=O)[C@@H](CC(C)C)NC(=O)[C@H](Cc3ccccc3)NC2=O)cc1 [cyclo(-Phe-D-Arg(Tos)-Phe-D-Leu-Trp-)]
From H-dLeu-Trp-Phe-dArg(Tos)-Phe-OH, PyBOP/DIEA, 25.0 °C, 2 steps
  ring closure, yield after HPLC: 29.4%

## Cc1ccc(S(=O)(=O)NC(=N)NCCC[C@H]2NC(=O)[C@H](Cc3ccccc3)NC(=O)[C@H](Cc3c[nH]c4ccccc34)NC(=O)[C@@H](C)NC(=O)[C@H](Cc3ccc(Cl)cc3)NC2=O)cc1 [cyclo(-Phe-D-Arg(Tos)-pClPhe-D-Ala-Trp-)]
From H-Trp-Phe-dArg(Tos)-pClPhe-dAla-OH, PyBOP/DIEA, 25.0 °C, 2 steps
  ring closure, yield after HPLC: 50.5%

## Cc1ccc(S(=O)(=O)NC(=N)NCCC[C@H]2NC(=O)[C@H](Cc3ccccc3)NC(=O)[C@H](Cc3c[nH]c4ccccc34)NC(=O)[C@@H](C)NC(=O)[C@H](Cc3ccc(F)cc3)NC2=O)cc1 [cyclo(-Phe-D-Arg(Tos)-pFPhe-D-Ala-Trp-)]
From H-Trp-Phe-dArg(Tos)-pFPhe-dAla-OH, PyBOP/DIEA, 25.0 °C, 2 steps
  ring closure, yield after HPLC: 65.6%

## Cc1ccc(S(=O)(=O)NC(=N)NCCC[C@H]2NC(=O)[C@H](c3ccccc3)NC(=O)[C@H](Cc3ccccc3)NC(=O)[C@@H](C)NC(=O)[C@H](Cc3ccccc3)NC2=O)cc1 [cyclo(-Phg-D-Arg(Tos)-Phe-D-Ala-Phe-)]
From H-Phe-Phg-dArg(Tos)-Phe-dAla-OH, PyBOP/DIEA, 25.0 °C, 2 steps
  ring closure, yield after HPLC: 13.1%

## Cc1ccc(S(=O)(=O)NC(=N)NCCC[C@H]2NC(=O)[C@H](c3ccccc3)NC(=O)[C@H](Cc3c[nH]c4ccccc34)NC(=O)[C@@H](C)NC(=O)[C@H](Cc3ccccc3)NC2=O)cc1 [cyclo(-Phg-D-Arg(Tos)-Phe-D-Ala-Trp-)]
From H-dAla-Trp-Phg-dArg(Tos)-Phe-OH, PyBOP/DIEA, 25.0 °C, 2 steps
  ring closure, yield after HPLC: 28.3%

## Cc1ccc(S(=O)(=O)NC(=N)NCCC[C@H]2NC(=O)[C@H](c3ccccc3)NC(=O)[C@H](Cc3c[nH]c4ccccc34)NC(=O)[C@@H](CO)NC(=O)[C@H](Cc3ccccc3)NC2=O)cc1 [cyclo(-Phg-D-Arg(Tos)-Phe-D-Ser-Trp-)]
From H-dSer-Trp-Phg-dArg(Tos)-Phe-OH, PyBOP/DIEA, 25.0 °C, 2 steps
  ring closure, yield after HPLC: 15.7%

## Cc1ccc(S(=O)(=O)NC(=N)NCCC[C@H]2NC(=O)[C@H](Cc3ccc(Cl)cc3)NC(=O)[C@H](Cc3c[nH]c4ccccc34)NC(=O)[C@@H](C)NC(=O)[C@H](Cc3ccccc3)NC2=O)cc1 [cyclo(-pClPhe-D-Arg(Tos)-Phe-D-Ala-Trp-)]
From H-Trp-pClPhe-dArg(Tos)-Phe-dAla-OH, PyBOP/DIEA, 25.0 °C, 2 steps
  ring closure, yield after HPLC: 7.5%

## Cc1ccc(S(=O)(=O)NC(=N)NCCC[C@H]2NC(=O)[C@H](Cc3ccc(F)cc3)NC(=O)[C@H](Cc3c[nH]c4ccccc34)NC(=O)[C@@H](C)NC(=O)[C@H](Cc3ccccc3)NC2=O)cc1 [cyclo(-pFPhe-D-Arg(Tos)-Phe-D-Ala-Trp-)]
From H-Trp-pFPhe-dArg(Tos)-Phe-dAla-OH, PyBOP/DIEA, 25.0 °C, 2 steps
  ring closure, yield after HPLC: 58.8%

## cyclo (-Arg-D-Lys (COCH2 CH2 CH2 CH2 CH2 Ph)-Tyr-D-Trp-Leu-)
DIEA (active ester), 3.12 mM, 5 steps
  ring closure, yield after HPLC: 26.8%

## cyclo(-Arg-D-Glu((2)-MeOPhp)-Tyr-D-Trp-Leu-)
DIEA (active ester), 1.07 mM, 4 steps
  ring closure, yield after HPLC: 9.2%

## cyclo(-Arg-D-Glu((2)-Pyp)-Tyr-D-Trp-Leu-)
DIEA (active ester), 1.1 mM, 4 steps
  ring closure, yield after HPLC: 12.1%

## cyclo(-Arg-D-Glu((4)-MeOPhp)-Tyr-D-Trp-Leu-)
DIEA (active ester), 1.07 mM, 5 steps
  ring closure, yield after HPLC: 24.4%

## cyclo(-Arg-D-Glu(Bzlp)-Tyr-D-Trp-Leu-)
DIEA (active ester), 1.09 mM, 4 steps
  ring closure, yield after HPLC: 21.6%

## cyclo(-Arg-D-Glu(NHCH2 CH2 Ph)-Asp (NHCH2 Ph)-D-Trp-Leu-)
DIEA (active ester), 2.67 mM, 5 steps
  ring closure, yield after HPLC: 6.72%

## cyclo(-Arg-D-Glu(NHCH2 CH2 Ph)-Lys(COPh)-D-Trp-Leu-)
DIEA (active ester), 3.63 mM, 5 steps
  ring closure, yield after HPLC: 57.6%

## cyclo(-Arg-D-Glu(NHCH2 CH2 Ph)-Lys(COPh)-D-Trp-Phe-)
ONB active ester/DIEA, 1.28 mM, 5 steps
  ring closure, yield after HPLC: 5.7%

## cyclo(-Arg-D-Glu(NHCH2 CH2 Ph)-Lys(COPh)-D-Trp-Trp-)
ONB active ester/DIEA, 0.93 mM, 5 steps
  ring closure, yield after HPLC: 13.9%

## cyclo(-Arg-D-Glu(NHCH2 CH2 Ph)-Tyr-D-Trp-Leu-)
DIEA (active ester), 0.9 mM, 4 steps
  ring closure, yield after HPLC: 30.9%

## cyclo(-Arg-D-Glu(NHCH2 CH2 Ph)-Tyr-D-Trp-Phe-)
ONB active ester/DIEA, 1.08 mM, 5 steps
  ring closure, yield after HPLC: 37%

## cyclo(-Arg-D-Glu(NHCH2 CH2 Ph)-Tyr-D-Trp-Trp-)
ONB active ester/DIEA, 1.33 mM, 5 steps
  ring closure, yield after HPLC: 14.8%

## cyclo(-Arg-D-Glu(NHCH2 Nap(1))-Tyr-D-Trp-Leu-)
[1]
  ring closure, yield after HPLC: 56.7%

## cyclo(-Arg-D-Glu(NHCH2 Ph)-Tyr-D-Trp-Leu-)
DIEA (active ester), 0.91 mM, 4 steps
  ring closure, yield after HPLC: 27.1%

## cyclo(-Arg-D-Glu(NHCHPh2)-Tyr-D-Trp-Leu-)
DIEA (active ester), 0.86 mM, 4 steps
  ring closure, yield after HPLC: 26.1%

## cyclo(-Arg-D-Glu(Php)-Tyr-D-Trp-Leu-)
[1]
  ring closure, yield after HPLC: 71.7%

## cyclo(-Arg-D-Lys(Ac)-Tyr-D-Trp-Leu-)
ONB active ester/DIEA, 1.36 mM, 5 steps
  ring closure, yield after HPLC: 23.9%

## cyclo(-Arg-D-Lys(COCH2 CH2 CH2 Ph)-Tyr-D-Trp-Leu-)
DIEA (active ester), 3.18 mM, 5 steps
  ring closure, yield after HPLC: 28.7%

## cyclo(-Arg-D-Lys(COCH2 Ph)-Tyr-D-Trp-Leu-)
ONB active ester/DIEA, 0.89 mM, 5 steps
  ring closure, yield after HPLC: 30.6%

## cyclo(-Arg-D-Lys(CoPh)-Tyr-D-Trp-Leu-)
ONB active ester/DIEA, 2.62 mM, 5 steps
  ring closure, yield after HPLC: 32.7%

## cyclo(-Arg-D-Lys(SO2 Nap(1))-Tyr-D-Trp-Leu-)
[2]
  ring closure, yield after HPLC: 30%

## cyclo(-Arg-D-Lys(SO2 Nap(2))-Trp-D-Trp-Leu-)
HONB/DCC preactivation, DIEA, 2.47 mM, 5 steps
  ring closure, yield after HPLC: 27.1%

## cyclo(-Arg-D-Lys-Tyr-D-Trp-Leu-)
HONB/DCC preactivation, DIEA, 0.94 mM, 5 steps
  ring closure, yield after HPLC: 11.7%

## cyclo(-Arg-D-Trp-Tyr-D-Trp-Leu-)
HONB/DCC preactivation, DIEA, 1.01 mM, 5 steps
  ring closure, yield after HPLC: 11.5%

## cyclo(-Arg-Glu(Php)-Tyr-D-Trp-Leu-)
DIEA (active ester), 1.1 mM, 5 steps
  ring closure, yield after HPLC: 22.7%

## cyclo(-Arg-Lys(SO2 Nap(2))-Tyr-D-Trp-Leu-)
[2]
  ring closure, yield after HPLC: 48.3%

## cyclo(-D-Leu-Lys(SO2 Nap(1))-D-Tyr-Arg-D-Trp-)
ONB active ester/DIEA, 3.3 mM, 5 steps
  ring closure, yield after HPLC: 52.2%

## cyclo(-D-Tyr-Arg-D-Trp-Leu-D-Lys(SO2 Nap(1))-)
DIEA (active ester), 3.28 mM, 5 steps
  ring closure, yield after HPLC: 54.3%

## cyclo(-Leu-D-Arg-Lys(SO2 Nap(1)-D-Tyr-Trp-)
DIEA, 1.1 mM, 5 steps
  ring closure, yield after HPLC: 21.1%

## cyclo(-Lys(isopropyl)-D-Glu(NHCH2 CH2 Ph)-Tyr-D-Lys(Nic)-Leu-)
ONB active ester/DIEA, 1.19 mM, 5 steps
  ring closure, yield after HPLC: 44.3%

## cyclo(-Lys-D-Glu(Php)-Tyr-D-Trp-Leu-)
DIEA (active ester), 1.11 mM, 5 steps
  ring closure, yield after HPLC: 23.5%
